# Results published in patent publication US20180155344A1, “TRICYCLIC PIPERIDINE COMPOUNDS” (ACTELION PHARMACEUTICALS LTD, priority 2015, published 2018).
# Target: T1, human TPH1 (Homo sapiens, UniProt P17752)
# T1 sequence (P17752 1-444): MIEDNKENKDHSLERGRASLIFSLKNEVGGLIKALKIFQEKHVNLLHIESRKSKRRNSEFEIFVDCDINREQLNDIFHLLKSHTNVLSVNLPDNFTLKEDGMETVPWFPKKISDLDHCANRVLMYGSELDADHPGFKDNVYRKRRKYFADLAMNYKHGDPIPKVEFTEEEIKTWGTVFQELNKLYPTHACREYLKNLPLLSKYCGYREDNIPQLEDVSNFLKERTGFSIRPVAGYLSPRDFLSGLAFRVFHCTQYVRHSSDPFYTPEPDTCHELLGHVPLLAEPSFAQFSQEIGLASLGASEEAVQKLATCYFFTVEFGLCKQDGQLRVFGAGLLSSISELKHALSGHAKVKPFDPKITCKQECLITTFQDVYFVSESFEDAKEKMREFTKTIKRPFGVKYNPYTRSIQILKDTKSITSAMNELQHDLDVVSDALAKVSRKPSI
# Assay: biochemical
# Conditions: not given
# Method in brief: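 Inhibition is derived from 5-hydroxy-L-tryptophan fluorescence (540 nm emission, 300 nm excitation) after perchloric acid stop, relative to DMSO vehicle. Recombinant full-length human enzyme (40-80 nM) reacts with 40 μM tryptophan plus 100 μM methyltetrahydropterin, pH 7.6 Tris/DTT/catalase, 15° C, 60 min.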
row,SMILES,IC50 [nM]
1,"O=C(COc1cccnc1Cl)N1CCc2nc3cc(C(F)(F)F)ccn3c2C1c1ccc(Cl)cc1F (stereo not drawn) [Example 3.4.1, 1-(1-(4-chloro-2-fluorophenyl)-7-(trifluoromethyl)-3,4-dihydroimidazo[1,2-a:5,4-c′]dipyridin-2(1H)-yl)-2-((2-chloropyridin-3-yl)oxy)ethan-1-one]",44
2,"O=C(COc1ccc(CN2CCOCC2)cc1Cl)N1CCc2nc3cc(C(F)(F)F)ccn3c2C1c1ccc(Cl)cc1F (stereo not drawn) [Example 3.4.2, 1-(1-(4-chloro-2-fluorophenyl)-7-(trifluoromethyl)-3,4-dihydroimidazo[1,2-a:5,4-c′]dipyridin-2(1H)-yl)-2-(2-chloro-4-(morpholinomethyl)phenoxy)ethan-1-one]",7
3,"Cn1nc(OCC(=O)N2CCc3nc4cc(C(F)(F)F)ccn4c3C2c2ccc(Cl)cc2F)c(Cl)c1C(F)(F)F (stereo not drawn) [Example 3.4.3, 2-((4-chloro-1-methyl-5-(trifluoromethyl)-1H-pyrazol-3-yl)oxy)-1-(1-(4-chloro-2-fluorophenyl)-7-(trifluoromethyl)-3,4-dihydroimidazo[1,2-a:5,4-c′]dipyridin-2(1H)-yl)ethan-1-one]",64
4,"CCc1nc(C)ccc1OCC(=O)N1CCc2nc3cc(C(F)(F)F)ccn3c2C1c1ccc(Cl)cc1F (stereo not drawn) [Example 3.4.4, 1-(1-(4-chloro-2-fluorophenyl)-7-(trifluoromethyl)-3,4-dihydroimidazo[1,2-a:5,4-c′]dipyridin-2(1H)-yl)-2-((2-ethyl-6-methylpyridin-3-yl)oxy)ethan-1-one]",21
5,"O=C(COc1ccc(N2CCOCC2)nc1Cl)N1CCc2nc3cc(C(F)(F)F)ccn3c2C1c1ccc(Cl)cc1F (stereo not drawn) [Example 3.4.6, 1-(1-(4-chloro-2-fluorophenyl)-7-(trifluoromethyl)-3,4-dihydroimidazo[1,2-a:5,4-c′]dipyridin-2(1H)-yl)-2-((2-chloro-6-morpholinopyridin-3-yl)oxy)ethan-1-one]",5
6,"CS(=O)(=O)Nc1ccc(OCC(=O)N2CCc3nc4cc(C(F)(F)F)ccn4c3C2c2ccc(Cl)cc2F)c(Cl)n1 (stereo not drawn) [Example 3.4.7, N-(6-chloro-5-(2-(1-(4-chloro-2-fluorophenyl)-7-(trifluoromethyl)-3,4-dihydroimidazo[1,2-a:5,4-c′]dipyridin-2(1H)-yl)-2-oxoethoxy)pyridin-2-yl)methanesulfonamide]",5
7,"CCc1nc(C)ccc1OCC(=O)N1CCc2nc3cc(C(F)(F)F)ccn3c2C1c1ccc(C2CC2)cc1F (stereo not drawn) [Example 3.5.1, 1-(1-(4-cyclopropyl-2-fluorophenyl)-7-(trifluoromethyl)-3,4-dihydroimidazo[1,2-a:5,4-c′]dipyridin-2(1H)-yl)-2-((2-ethyl-6-methylpyridin-3-yl)oxy)ethan-1-one]",11
8,"O=C(COc1ccc(N2CCOCC2)cc1Cl)N1CCc2nc3cc(C(F)(F)F)ccn3c2C1c1ccc(C2CC2)cc1F (stereo not drawn) [Example 3.5.2, 2-(2-chloro-4-morpholinophenoxy)-1-(1-(4-cyclopropyl-2-fluorophenyl)-7-(trifluoromethyl)-3,4-dihydroimidazo[1,2-a:5,4-c′]dipyridin-2(1H)-yl)ethan-1-one]",6
9,"CCc1c(OCC(=O)N2CCc3nc4cc(C(F)(F)F)ccn4c3C2c2ccc(C3CC3)cc2F)ccc(C)[n+]1[O-] (stereo not drawn) [Example 3.5.3, 1-(1-(4-cyclopropyl-2-fluorophenyl)-7-(trifluoromethyl)-3,4-dihydroimidazo[1,2-a:5,4-c′]dipyridin-2(1H)-yl)-2-((2-ethyl-6-methyl-1-(I1-oxidanyl)-1I4-pyridin-3-yl)oxy)ethan-1-one]",85
10,"O=C(COc1ccc[n+]([O-])c1Cl)N1CCc2nc3cc(C(F)(F)F)ccn3c2C1c1ccc(C2CC2)cc1F (stereo not drawn) [Example 3.5.4, 2-((2-chloro-1-(I1-oxidanyl)-1I4-pyridin-3-yl)oxy)-1-(1-(4-cyclopropyl-2-fluorophenyl)-7-(trifluoromethyl)-3,4-dihydroimidazo[1,2-a:5,4-c′]dipyridin-2(1H)-yl)ethan-1-one]",210
11,"COc1ccc(C2c3c(nc4cc(C(F)(F)F)ccn34)CCN2C(=O)COc2ccc3ccccc3c2)cn1 (stereo not drawn) [Example 3.6.1, 1-(1-(6-methoxypyridin-3-yl)-7-(trifluoromethyl)-3,4-dihydroimidazo[1,2-a:5,4-c′]dipyridin-2(1H)-yl)-2-(naphthalen-2-yloxy)ethan-1-one]",52
12,"COc1ccc(C2c3c(nc4cc(C(F)(F)F)ccn34)CCN2C(=O)COc2ccc(CN3CCOCC3)cc2Cl)cn1 (stereo not drawn) [Example 3.6.2, 2-(2-chloro-4-(morpholinomethyl)phenoxy)-1-(1-(6-methoxypyridin-3-yl)-7-(trifluoromethyl)-3,4-dihydroimidazo[1,2-a:5,4-c′]dipyridin-2(1H)-yl)ethan-1-one]",50
13,"CCOc1ccc(C2c3c(nc4cc(C(F)(F)F)ccn34)CCN2C(=O)COc2ccc(CN3CCOCC3)cc2Cl)cn1 (stereo not drawn) [Example 3.7.1, 2-(2-chloro-4-(morpholinomethyl)phenoxy)-1-(1-(6-ethoxypyridin-3-yl)-7-(trifluoromethyl)-3,4-dihydroimidazo[1,2-a:5,4-c′]dipyridin-2(1H)-yl)ethan-1-one]",18
14,"O=C(COc1ccc(CN2CCOCC2)cc1Cl)N1CCc2nc3cc(C(F)(F)F)ccn3c2C1c1ccc(OCC(F)(F)F)nc1 (stereo not drawn) [Example 3.8.1, 2-(2-chloro-4-(morpholinomethyl)phenoxy)-1-(1-(6-(2,2,2-trifluoroethoxy)pyridin-3-yl)-7-(trifluoromethyl)-3,4-dihydroimidazo[1,2-a:5,4-c′]dipyridin-2(1H)-yl)ethan-1-one]",86
15,"COc1ccc(C2c3c(nc4cc(C(F)(F)F)ccn34)CCN2C(=O)COc2ccc3ccccc3c2)cc1O (stereo not drawn) [Example 3.9.1, 1-(1-(3-hydroxy-4-methoxyphenyl)-7-(trifluoromethyl)-3,4-dihydroimidazo[1,2-a:5,4-c′]dipyridin-2(1H)-yl)-2-(naphthalen-2-yloxy)ethan-1-one]",45
16,"Cc1ccc(C2c3c(nc4cc(C(F)(F)F)ccn34)CCN2C(=O)COc2ccc3ccccc3c2)cc1C (stereo not drawn) [Example 3.10.1, 1-(1-(3,4-dimethylphenyl)-7-(trifluoromethyl)-3,4-dihydroimidazo[1,2-a:5,4-c′]dipyridin-2(1H)-yl)-2-(naphthalen-2-yloxy)ethan-1-one]",33
17,"Cc1ccc(C2c3c(nc4cc(C(F)(F)F)ccn34)CCN2C(=O)COc2ccc(CN3CCOCC3)cc2Cl)cc1C (stereo not drawn) [Example 3.10.2, 2-(2-chloro-4-(morpholinomethyl)phenoxy)-1-(1-(3,4-dimethylphenyl)-7-(trifluoromethyl)-3,4-dihydroimidazo[1,2-a:5,4-c′]dipyridin-2(1H)-yl)ethan-1-one]",23
18,"Cc1ccc(C2c3c(nc4cc(C(F)(F)F)ccn34)CCN2C(=O)COc2cccnc2Cl)cc1C (stereo not drawn) [Example 3.10.3, 2-((2-chloropyridin-3-yl)oxy)-1-(1-(3,4-dimethylphenyl)-7-(trifluoromethyl)-3,4-dihydroimidazo[1,2-a:5,4-c′]dipyridin-2(1H)-yl)ethan-1-one]",239
19,"COc1cc(C2c3c(nc4cc(C(F)(F)F)ccn34)CCN2C(=O)COc2ccc3ccccc3c2)ccc1O (stereo not drawn) [Example 3.11.1, 1-(1-(4-hydroxy-3-methoxyphenyl)-7-(trifluoromethyl)-3,4-dihydroimidazo[1,2-a:5,4-c′]dipyridin-2(1H)-yl)-2-(naphthalen-2-yloxy)ethan-1-one]",318
20,"COc1ccc(C2c3c(nc4cc(C(F)(F)F)ccn34)CCN2C(=O)COc2ccc3ccccc3c2)cc1OC(F)F (stereo not drawn) [Example 3.12.1, 1-(1-(3-(difluoromethoxy)-4-methoxyphenyl)-7-(trifluoromethyl)-3,4-dihydroimidazo[1,2-a:5,4-c′]dipyridin-2(1H)-yl)-2-(naphthalen-2-yloxy)ethan-1-one]",41
21,"COc1ccc(C2c3c(nc4cc(C(F)(F)F)ccn34)CCN2C(=O)COc2ccc3ccccc3c2)cc1OC(F)(F)F (stereo not drawn) [Example 3.13.1, 1-(1-(4-methoxy-3-(trifluoromethoxy)phenyl)-7-(trifluoromethyl)-3,4-dihydroimidazo[1,2-a:5,4-c′]dipyridin-2(1H)-yl)-2-(naphthalen-2-yloxy)ethan-1-one]",75
22,"COc1cc(C2c3c(nc4cc(C(F)(F)F)ccn34)CCN2C(=O)COc2ccc3ccccc3c2)ccc1OC(F)F (stereo not drawn) [Example 3.14.1, 1-(1-(4-(difluoromethoxy)-3-methoxyphenyl)-7-(trifluoromethyl)-3,4-dihydroimidazo[1,2-a:5,4-c′]dipyridin-2(1H)-yl)-2-(naphthalen-2-yloxy)ethan-1-one]",106
23,"COc1cc(C2c3c(nc4cc(C(F)(F)F)ccn34)CCN2C(=O)COc2ccc3ccccc3c2)ccc1OCCN(C)C (stereo not drawn) [Example 3.15.1, 1-(1-(4-(2-(dimethylamino)ethoxy)-3-methoxyphenyl)-7-(trifluoromethyl)-3,4-dihydroimidazo[1,2-a:5,4-c′]dipyridin-2(1H)-yl)-2-(naphthalen-2-yloxy)ethan-1-one]",70

# Same assay, conditions: Table 1; full length human TPH1, 40 μM L-tryptophan, 15° C., 60 minutes; mean if determined several times
row,SMILES,IC50 [nM]
1,"O=C(COc1ccc(N2CCOCC2)cc1Cl)N1CCc2nc3cc(C(F)(F)F)ccn3c2[C@H]1c1ccc(Cl)cc1F [Example 3.4.5, ((1R)-1-(4-chloro-2-fluorophenyl)-7-(trifluoromethyl)-3,10a-dihydroimidazo[1,2-a:5,4-c′]dipyridin-2(1H)-yl)-2-(2-chloro-4-morpholinophenoxy)ethan-1-one]",6
